Measured values taken from patent US12144864B2, “Tubulysins and protein-tubulysin conjugates” (Regeneron Pharmaceuticals, Inc., priority 2018, dated 2024).
Read-outs that look alike come from different tables or passages of the source.

Key:
H69AR cells = test: Cytotoxicity in panel of MDR cell lines, H69AR (72 h and 144 h); format: cell-based, human; details: for IC50: Homo sapiens
Method in brief: (§1)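 MDR lines (HCT-15; doxorubicin-resistant H69AR; mitoxantrone-resistant MES-SA/MX2 and HL60/MX2) seeded at 1000 cells/well in normal growth media, treated with 1:3 serially diluted payloads for 72 h and 144 h. Viability by CellTiter-Glo ATP luminescence; IC50 from four-parameter logistic fit of 10-point curves.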

HCT-15 cells = test: Cytotoxicity in panel of MDR cell lines, HCT-15 (72 h and 144 h); format: cell-based, human; details: for IC50: Homo sapiens
Method in brief: as §1

HEK293 cells = test: Cell-based killing assay of payloads (CellTiter-Glo), HEK293 cells; design: species or system human; details: 5-day incubation
Method in brief: (§2)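 Cells plated at 4000/well in line-specific complete medium, grown overnight, then exposed to 1:3 serial dilutions of payload (100 nM to […]) for 5 days. ATP-based CellTiter-Glo luminescence read; IC50 from four-parameter logistic 10-point fit, and % kill at top concentration as 100 − % viable.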

T47D cells = test: Cell-based killing assay of payloads (CellTiter-Glo), T47D cells; design: species or system human; details: 5-day incubation
Method in brief: as §2

C4-2 cells [1] = test: Cytotoxicity of anti-STEAP2 ADCs, payloads and reference compounds in C4-2 cells; format: cell-based, human
Procedure: (§3) To test the ability of the disclosed tubulysin payloads to kill human cell lines, an in vitro cytotoxicity assay was performed. In vitro cytotoxicity of the disclosed payloads, as well as reference compounds, were evaluated using the CellTiter-Glo Assay Kit (Promega, Cat #G7573), in which the quantity of ATP present is used to determine the number of viable cells in culture. For the assay, C4-2, HEK293, or T47D cells were seeded at 4000 cells/well on Nunclon white 96-well plates in complete growth medium (DME high glucose:Ham's F12 at 4:1, 10% FBS, 100 units/ml Penicillin, 100 ug/ml streptomycin, 53 ug/ml glutatmine, 10 ug/ml insulin, 220 ng/ml biotin, 12.5 pg/ml T3, 12.5 ug/ml Adenine, 4 ug/ml transferrin for C42 cells; DME high glucose, 10% FBS, 100 units/ml Penicillin, 100 ug/ml streptomycin, 53 ug/ml glutatmine for HEK293; RPMI, 10% FBS, 100 units/ml Penicillin, 100 ug/ml streptomycin, 53 ug/ml glutatmine, 10 ug/ml insulin, 10 mM HEPEs, 200 nM Sodium Pyruvate for T47D cells) and grown overnight at 37° C. in 5% CO2. For cell viability curves, 1:3 serially diluted payloads were added to the cells at final concentrations ranging from 100 nM to […], including a no treatment control group, and were then incubated for 5 days. After the 5-day incubation, cells were incubated at room temperature with 100 μL of CellTiter-Glo reagents for 10 minutes. Relative luminescence units (RLU) were determined on a Victor plate reader (PerkinElmer). The IC50 values were determined from a four-parameter logistic equation over a 10-point response curve (GraphPad Prism). All IC50 values are expressed in molar (M) concentration. The percent cell killing (% kill) at the maximum concentration tested was estimated from the following formula (100−% viable cells). Averages±standard deviation (SD) are included where replicate experiments were performed.
To further test the ability of the disclosed tubulysin payloads, reference compounds, and antibody drug conjugates using these payloads, a cytotoxicity assay was performed using C4-2 cells as described in this example (see above). For these studies, anti-STEAP2 antibodies were conjugated to select tubulysins payloads, and the compounds were tested at concentrations starting at 100 nM with 3-fold serial dilution. All IC50 values are expressed in nM concentration and the percent cell killing at the maximum concentration tested was estimated from the following formula (100−% viable cells).

HCT15/PRLR cells = test: Cytotoxicity of anti-PRLR tubulysin ADCs and payloads in HCT15/PRLR cells with or without Verapamil; format: cell-based, human; details: for IC50: Homo sapiens, HCT-15
Procedure: as §3
Bioassays were developed to assess the efficacy of an anti-PRLR antibody conjugated with the disclosed tubulysin payloads and reference payloads. It was developed to assess the activity of tubulysin payloads after internalization of an anti-PRLR-tubulysin ADC into cells, release of the payload, and subsequent cytotoxicity. For this assay, a HCT15 line was engineered to express human full length PRLR (accession #NP_000940.1). The resulting stable cell line is referred to herein as HCT15/PRLR. In vitro cytotoxicity of the disclosed payloads, reference compounds, and tested ADCs were evaluated similarly as described in this example using HCT15/PRLR cells with or without […] of Verapamil diluted in normal culture medium. The compounds were tested at concentrations starting at 100 nM with 3-fold serial dilution. All IC50 values are expressed in nM concentration and the percent cell killing (% kill) at the maximum concentration tested was estimated from the following formula (100−% viable cells).

MES-SA/MX2 cells = test: Cytotoxicity in panel of MDR cell lines, MES-SA/MX2 (72 h and 144 h); format: cell-based, human; details: for IC50: Homo sapiens
Method in brief: as §1

HL60/MX2 cells = test: Cytotoxicity in panel of MDR cell lines, HL60/MX2 (72 h and 144 h); format: cell-based, human; details: for IC50: Homo sapiens
Method in brief: as §1

HCT15 cells = test: cells; format: cell-based, human; details: HCT15 cells
Method in brief: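 HCT15 colorectal carcinoma cells, 1000 per well in RPMI/10% FBS, with or without 5 ug/mL verapamil, exposed to 1:3 serially diluted payloads for 5 days at 37 °C. Viability measured by CellTiter-Glo ATP luminescence; IC50 from four-parameter logistic fit of a 10-point curve, % kill at top concentration.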

C4-2 cells [2] = test: Cell-based killing assay of payloads (CellTiter-Glo), C4-2 cells; design: species or system human; details: 5-day incubation
Method in brief: as §2

[3] = at maximum concentration tested

Q: How did the “H69AR % Kill 72 h” value (H69AR cells; 72 h incubation) turn out when `C#CCCCCN(C(=O)[C@@H](NC(=O)[C@H]1CCCCN1C)[C@@H](C)CC)[C@H](C[C@@H](OC(C)=O)c1nc(C(=O)N[C@@H](Cc2ccc(N)cc2)CC(C)(C)C(=O)O)cs1)C(C)C` [IVd, (4S)-4-({2-[(1R,3R)-1-(Acetyloxy)-3-[(2S,3S)—N-(hex-5-yn-1-yl)-3-methyl-2-{[(2R)-1-methylpiperidin-2-yl]formamido}pentanamido]-4-methylpentyl]-1,3-thiazol-4-yl}formamido)-5-(4-aminophenyl)-2,2-dimethylpentanoic acid] was run?
A: The value was 96.9%.

Q: And the “H69AR % Kill 144 h” value (H69AR cells; 144 h incubation)?
A: Its value is 99.5%.

Q: What about the IC50 (H69AR cells; 72 h incubation, read-out: H69AR IC50 72 h) of the same compound?
A: Its IC50 is 0.0564 nM.

Q: What about the IC50 (H69AR cells; 144 h incubation, read-out: H69AR IC50 144 h) of the same compound?
A: Its IC50 is 0.133 nM.

Q: And the “HCT-15 % Kill 72 h” value (HCT-15 cells; 72 h incubation)?
A: The value was 97.6%.

Q: And the “HCT-15 % Kill 144 h” value (HCT-15 cells; 144 h incubation)?
A: The value was 99.7%.

Q: What about the IC50 (HCT-15 cells; 72 h incubation, read-out: HCT-15 IC50 72 h) of the same compound?
A: Its IC50 is 0.00888 nM.

Q: And the IC50 (HCT-15 cells; 144 h incubation, read-out: HCT-15 IC50 144 h)?
A: Its IC50 is 0.0295 nM.

Q: What about the IC50 (HEK293 cells; Homo sapiens, HEK293, 120 h) of the same compound?
A: Its IC50 is 0.0572 nM.

Q: What about the “HEK293 % Kill” value (HEK293 cells; [3]) of the same compound?
A: The value was 85.4%.

Q: And the IC50 (T47D cells; Homo sapiens, T47D, 120 h)?
A: Its IC50 is 0.035 nM.

Q: What about the “T47D % Kill” value (T47D cells; [3]) of the same compound?
A: The value was 84.5%.

Q: What about the IC50 (C4-2 cells [1]; Homo sapiens, top concentration 100 nM, 3-fold serial dilution) of the same compound?
A: The IC50 was 0.022 nM.

Q: And the “% kill” value (C4-2 cells [1]; [3])?
A: The value was 99%.

Q: And the IC50 (HCT15/PRLR cells; with Verapamil, read-out: IC50 (nM) on HCT15/PRLR w/ Verapamil)?
A: Its IC50 is 0.015 nM.

Q: And the IC50 (HCT15/PRLR cells; without Verapamil, read-out: IC50 (nM) on HCT15/PRLR w/o Verapamil)?
A: Its IC50 is 0.037 nM.

Q: And the “% kill on HCT15/PRLR w/ Verapamil” value (HCT15/PRLR cells; with Verapamil, at maximum concentration tested)?
A: Its value is 99%.

Q: What about the “% kill on HCT15/PRLR w/o Verapamil” value (HCT15/PRLR cells; without Verapamil, at maximum concentration tested) of the same compound?
A: Its value is 99%.

Q: What about the “MES-SA/MX2 % Kill 72 h” value (MES-SA/MX2 cells; 72 h incubation) of the same compound?
A: The value was 99.5%.

Q: And the “MES-SA/MX2 % Kill 144 h” value (MES-SA/MX2 cells; 144 h incubation)?
A: Its value is 100%.

Q: What about the IC50 (MES-SA/MX2 cells; 72 h incubation, read-out: MES-SA/MX2 IC50 72 h) of the same compound?
A: The IC50 was 0.0541 nM.

Q: What about the IC50 (MES-SA/MX2 cells; 144 h incubation, read-out: MES-SA/MX2 IC50 144 h) of the same compound?
A: The IC50 was 0.13 nM.

Q: What about the “HL60/MX2 % Kill 72 h” value (HL60/MX2 cells; 72 h incubation) of the same compound?
A: The value was 98.6%.

Q: And the “HL60/MX2 % Kill 144 h” value (HL60/MX2 cells; 144 h incubation)?
A: The value was 99.9%.

Q: What about the IC50 (HL60/MX2 cells; 72 h incubation, read-out: HL60/MX2 IC50 72 h) of the same compound?
A: The IC50 was < 0.015 nM.

Q: And the IC50 (HL60/MX2 cells; 144 h incubation, read-out: HL60/MX2 IC50 144 h)?
A: The IC50 was < 0.015 nM.

Q: What about the “HCT-15 + verapamil % Kill” value (HCT15 cells; with 5 ug/mL Verapamil, maximum % cell killing) of the same compound?
A: Its value is 97.7 ± 1.8%.

Q: What about the IC50 (HCT15 cells; with 5 ug/mL Verapamil, read-out: HCT-15 + verapamil IC50) of the same compound?
A: The IC50 was 0.0407 nM.

Q: What about the “HCT-15 % Kill” value (HCT15 cells; without Verapamil, maximum % cell killing) of the same compound?
A: Its value is 98.2 ± 0.5%.

Q: And the IC50 (HCT15 cells; Homo sapiens, HCT-15, without Verapamil, read-out: HCT-15 IC50)?
A: Its IC50 is 0.057 nM.

Q: And the IC50 (C4-2 cells [2]; Homo sapiens, C4-2, 120 h, average ± SD where replicates)?
A: Its IC50 is 0.0164 nM.

Q: What about the “C4-2 % Kill” value (C4-2 cells [2]; at maximum concentration tested (100 − % viable cells)) of the same compound?
A: The value was 93.7 ± 1.8%.
